Experimental data taken from paper PMC8241045, “Improving anti-tumor activity of sorafenib tosylate by lipid- and polymer-coated nanomatrix” (Drug Delivery, 2017).
Values after ≈ are worked out from the molar mass of the structure shown. Where a name gives a salt, the structure may show the parent alone. Read-outs that look alike come from different tables or passages of the source.

Assays:
[1] = Solubility in distilled water (shake-flask, HPLC); type: physicochemical; conditions: 37 °C, thermodynamic from solid
MDA-MB-231 cells = experiment: In vitro cytotoxicity, sulforhodamine B assay; type: cell-based; conditions: Homo sapiens, 48 h, SRB assay, n = 3
Procedure: The cytotoxicity of MSNM@SFN against MDA-MB-231 cells was measured by sulforhodamine B assay (SRB assay). Briefly, MDA-MB-231 cells (1 × 10^4 cells per well) were seeded in a 96-well plate and grown in medium for 24 h. Then, the cells were treated with cell culture medium containing the different amounts of MSNM@SFN for 48 h at 37 °C. The cell viability was determined by SRB assay. Absorbance was measured at 540 nm using a 96-well plate reader (model 680; Bio-Rad Laboratories, Hercules, CA). The survival percentages were calculated using the formula: survival % = (A540 nm for the treated cells/A540 nm for the control cells) × 100%, where A540 nm is the absorbance value. Each assay was carried out in triplicate. Finally, dose–effect curves were constructed and IC50 values were calculated.

[2] = cited from earlier work
[3] = very low aqueous solubility in GI fluids, high permeability; cited from earlier work

CC(=O)O[C@H]1C(=O)[C@@]2(C)[C@H]([C@H](OC(=O)c3ccccc3)[C@]3(O)C[C@H](OC(=O)[C@H](O)[C@@H](NC(=O)c4ccccc4)c4ccccc4)C(C)=C1C3(C)C)[C@]1(OC(C)=O)CO[C@@H]1C[C@@H]2O [PTX, paclitaxel]
solubility at 48 h ([1]; water, read-out: Solubility of PTX): 0.17 ± 0.02 µg/mL (≈ 0.199 µM)

CNC(=O)c1cc(Oc2ccc(NC(=O)Nc3ccc(Cl)c(C(F)(F)F)c3)cc2)ccn1 [SFN, Sorafenib tosylate]
solubility at 48 h ([1]; 48 h, read-out: Solubility of SFN): < 0.1 µg/mL
IC50 (MDA-MB-231 cells): 5.84 ± 0.17 µM
LogP [2]: 3.8
BCS class [3]: BCS II

CCc1c2c(nc3ccc(O)cc13)-c1cc3c(c(=O)n1C2)COC(=O)[C@]3(O)CC [SN38, 7-ethyl-10-hydroxycamptothecin]
solubility at 48 h ([1]; water, read-out: Solubility of SN38): < 0.01 µg/mL
